Measurements reported in ChEMBL document CHEMBL5257065, “Isosteviol derivatives as protein tyrosine Phosphatase-1B inhibitors: Synthesis, biological evaluation and molecular docking” (Bioorg Med Chem, 2023).

Legend:
[1] = target: T1, Tyrosine-protein phosphatase non-receptor type 1 (Homo sapiens) (UniProt P18031); assay: Inhibition of PTP1B (unknown origin) at 10 micromol/L by DAS-ELISA; settings: dose 10.0 µmol/L
T1 sequence (whole entry): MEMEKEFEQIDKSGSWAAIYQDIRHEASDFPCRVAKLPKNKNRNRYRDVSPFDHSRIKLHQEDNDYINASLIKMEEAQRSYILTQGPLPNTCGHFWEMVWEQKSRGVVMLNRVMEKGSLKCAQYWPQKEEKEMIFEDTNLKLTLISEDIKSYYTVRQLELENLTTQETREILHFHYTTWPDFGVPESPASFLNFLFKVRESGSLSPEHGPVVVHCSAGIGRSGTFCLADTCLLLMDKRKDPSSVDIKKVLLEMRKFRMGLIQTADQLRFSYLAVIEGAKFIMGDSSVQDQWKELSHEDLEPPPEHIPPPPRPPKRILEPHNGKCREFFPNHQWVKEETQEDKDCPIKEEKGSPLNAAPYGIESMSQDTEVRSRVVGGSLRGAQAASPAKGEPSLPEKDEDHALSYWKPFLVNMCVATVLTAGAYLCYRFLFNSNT

[2] = target: T2, Tyrosine-protein phosphatase non-receptor type 1 (Homo sapiens, UniProt P18031); assay: Inhibition of PTP1B (unknown origin) by DAS-ELISA
T2 sequence (P18031 whole entry): T1 sequence (whole entry)

[3] = target: T3, Tyrosine-protein phosphatase non-receptor type 2 (Homo sapiens, UniProt P17706); assay: Inhibition of TCPTP (unknown origin) by DAS-ELISA
T3 sequence (P17706 whole entry): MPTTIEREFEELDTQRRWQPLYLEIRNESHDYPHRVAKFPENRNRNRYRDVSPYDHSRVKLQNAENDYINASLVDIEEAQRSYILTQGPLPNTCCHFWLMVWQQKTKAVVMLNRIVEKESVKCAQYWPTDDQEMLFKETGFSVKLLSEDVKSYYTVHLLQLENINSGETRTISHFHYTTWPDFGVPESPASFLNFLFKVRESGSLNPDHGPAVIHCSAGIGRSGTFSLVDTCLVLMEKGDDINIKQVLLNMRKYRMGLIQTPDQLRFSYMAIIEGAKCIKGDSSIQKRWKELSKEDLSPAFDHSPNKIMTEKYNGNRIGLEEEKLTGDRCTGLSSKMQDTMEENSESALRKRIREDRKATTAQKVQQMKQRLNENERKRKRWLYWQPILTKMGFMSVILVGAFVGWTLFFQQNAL

[4] = target: T4, M-phase inducer phosphatase 2 (Homo sapiens, UniProt P30305); assay: Inhibition of CDC25B (unknown origin) by DAS-ELISA
T4 sequence (P30305 whole entry): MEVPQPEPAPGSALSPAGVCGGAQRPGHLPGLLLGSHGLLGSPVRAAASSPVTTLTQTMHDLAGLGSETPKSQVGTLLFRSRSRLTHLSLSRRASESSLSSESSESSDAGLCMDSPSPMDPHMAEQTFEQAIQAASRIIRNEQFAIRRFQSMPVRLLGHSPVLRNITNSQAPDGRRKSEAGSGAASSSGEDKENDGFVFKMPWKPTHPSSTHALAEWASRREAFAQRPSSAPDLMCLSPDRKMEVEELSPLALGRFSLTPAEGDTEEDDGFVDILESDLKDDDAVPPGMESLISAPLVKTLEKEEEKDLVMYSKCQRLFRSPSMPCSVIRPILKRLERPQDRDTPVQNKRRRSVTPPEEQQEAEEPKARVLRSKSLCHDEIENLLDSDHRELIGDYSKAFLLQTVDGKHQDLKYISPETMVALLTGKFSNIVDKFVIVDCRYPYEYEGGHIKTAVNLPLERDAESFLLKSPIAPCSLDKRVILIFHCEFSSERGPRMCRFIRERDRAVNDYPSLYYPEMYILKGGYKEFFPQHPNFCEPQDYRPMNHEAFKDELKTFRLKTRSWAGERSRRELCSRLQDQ

Homo sapiens [5] = species on record: Homo sapiens; assay: Selectivity ratio of IC50 for TCPTP (unknown origin) to IC50 for PTP1B (unknown origin) by DAS-ELISA
Homo sapiens [6] = species on record: Homo sapiens; assay: Selectivity ratio of IC50 for CDC25B (unknown origin) to IC50 for PTP1B (unknown origin) by DAS-ELISA

inhibition [1] [%]	Structure (SMILES)	other results
71.5	CCOC(=O)[C@]1(C)CCC[C@@]2(C)[C@@H]3CC[C@@]4(C)C[C@]3(CC[C@@H]21)C/C4=N\OC	
22	COC(=O)[C@]1(C)CCC[C@@]2(C)[C@@H]3CC[C@@]4(C)C[C@]3(CC[C@@H]21)C/C4=N\O	
78.5	C[C@@]12CC[C@@H]3[C@@](CC[C@H]4[C@@]3(C)CCC[C@@]4(C)C(=O)OCCN3CCNCC3)(CC1=O)C2	IC50 [2]: 800 nM
71.9	C[C@@]12CC[C@@H]3[C@@](CC[C@H]4[C@@]3(C)CCC[C@@]4(C)C(=O)OCCCCCBr)(CC1=O)C2	
75.3	Cc1ccc(S(=O)(=O)N/N=C2/C[C@]34CC[C@H]5[C@@](C)(CCC[C@@]5(C)C(=O)O)[C@@H]3CC[C@@]2(C)C4)cc1	
76.3	CCCOC(=O)[C@]1(C)CCC[C@@]2(C)[C@@H]3CC[C@@]4(C)C[C@]3(CC[C@@H]21)C/C4=N\O	
63.6	C[C@@]12CC[C@@H]3[C@@](CC[C@H]4[C@@]3(C)CCC[C@@]4(C)C(=O)O)(CC1=O)C2 [ISOSTEVIOL]	IC50 [2]: 2270 nM; IC50 [3]: 1580 nM; IC50 [4]: 2090 nM
74	CC(=O)O[C@@H]1C[C@]23CC[C@H]4[C@@](C)(CCC[C@@]4(C)C(=O)O)[C@@H]2CC[C@@]1(C)C3	
50.3	C[C@@]12CC[C@@H]3[C@@](CC[C@H]4[C@@]3(C)CCC[C@@]4(C)C(=O)OCc3ccccc3Br)(CC1=O)C2	
75.5	CCOC(=O)[C@]1(C)CCC[C@@]2(C)[C@@H]3CC[C@@]4(C)C[C@]3(CC[C@@H]21)C[C@H]4OC(=O)c1ccccc1	
82.6	C[C@@]12CC[C@@H]3[C@@](CC[C@H]4[C@@]3(C)CCC[C@@]4(C)C(=O)OCc3ccccc3I)(CC1=O)C2	IC50 [2]: 400 nM; IC50 [3]: 1410 nM; IC50 [4]: 3240 nM; Ratio IC50 (Homo sapiens [5]): 3.5; Ratio IC50 (Homo sapiens [6]): 6
67.2	CCOC(=O)[C@]1(C)CCC[C@@]2(C)[C@@H]3CC[C@@]4(C)C[C@]3(CC[C@@H]21)C[C@H]4O	
61.9	CCCOC(=O)[C@]1(C)CCC[C@@]2(C)[C@@H]3CC[C@@]4(C)C[C@]3(CC[C@@H]21)CC4=O	
36.2	C[C@@]12CC[C@@H]3[C@@](CC[C@H]4[C@@]3(C)CCC[C@@]4(C)C(=O)O)(C[C@H]1O)C2	
77.7	C[C@@]12CC[C@@H]3[C@@](CC[C@H]4[C@@]3(C)CCC[C@@]4(C)C(=O)OCCCCN3CCCCC3)(CC1=O)C2	
73.6	C[C@@]12CC[C@@H]3[C@@](CC[C@H]4[C@@]3(C)CCC[C@@]4(C)C(=O)OCCBr)(CC1=O)C2	
43.8	C[C@@]12CC[C@@H]3[C@@](CC[C@H]4[C@@]3(C)CCC[C@@]4(C)C(=O)OCc3ccccc3Cl)(CC1=O)C2	
61.9	C[C@@]12CC[C@@H]3[C@@](CC[C@H]4[C@@]3(C)CCC[C@@]4(C)C(=O)O)(C/C1=N\O)C2	
74.2	C[C@@]12CC[C@@H]3[C@@](CC[C@H]4[C@@]3(C)CCC[C@@]4(C)C(=O)OCCN3CCCCC3)(CC1=O)C2	
71.8	Cc1ccc(COC(=O)[C@]2(C)CCC[C@@]3(C)[C@@H]4CC[C@@]5(C)C[C@]4(CC[C@@H]32)CC5=O)cc1	
73.9	CCOC(=O)[C@]1(C)CCC[C@@]2(C)[C@@H]3CC[C@@]4(C)C[C@]3(CC[C@@H]21)CC4=O	
70.1	COC(=O)[C@]1(C)CCC[C@@]2(C)[C@@H]3CC[C@@]4(C)C[C@]3(CC[C@@H]21)CC4=O	
79.6	C[C@@]12CC[C@@H]3[C@@](CC[C@H]4[C@@]3(C)CCC[C@@]4(C)C(=O)OCc3ccc(Br)cc3)(CC1=O)C2	IC50 [2]: 330 nM; IC50 [3]: 3240 nM; IC50 [4]: 3550 nM; Ratio IC50 (Homo sapiens [5]): 3.5; Ratio IC50 (Homo sapiens [6]): 6
50.8	CCOC(=O)[C@]1(C)CCC[C@@]2(C)[C@@H]3CC[C@@]4(C)C[C@]3(CC[C@@H]21)C/C4=N\O	
79	CCOC(=O)[C@]1(C)CCC[C@@]2(C)[C@@H]3CC[C@@]4(C)C[C@]3(CC[C@@H]21)C[C@H]4OC(=O)c1ccc(O)cc1	IC50 [2]: 360 nM; IC50 [3]: 2630 nM; IC50 [4]: 2340 nM; Ratio IC50 (Homo sapiens [5]): 3.5; Ratio IC50 (Homo sapiens [6]): 6
81.7	CCOC(=O)[C@]1(C)CCC[C@@]2(C)[C@@H]3CC[C@@]4(C)C[C@]3(CC[C@@H]21)[C@H](Br)C4=O	IC50 [2]: 240 nM; IC50 [3]: 1700 nM; IC50 [4]: 3310 nM; Ratio IC50 (Homo sapiens [5]): 7; Ratio IC50 (Homo sapiens [6]): 14
70.9	C[C@@]12CC[C@@H]3[C@@](CC[C@H]4[C@@]3(C)CCC[C@@]4(C)C(=O)OCCCCBr)(CC1=O)C2	
76	C[C@@]12CC[C@@H]3[C@@](CC[C@H]4[C@@]3(C)CCC[C@@]4(C)C(=O)OCc3cccc(C#N)c3)(CC1=O)C2	
52.4	C[C@@]12CC[C@@H]3[C@@](CC[C@H]4[C@@]3(C)CCC[C@@]4(C)C(=O)OCc3ccccc3)(CC1=O)C2	
